A short description of data set [1]: Metabolic stability using human liver microsomes. Type of data set: in vitro ADME. Particulars: for half-life at 1 μM / Change over non-deuterated compound (Table 3): Table 3 experiment; for half-life at 1 μM: read-out: t1/2 ± SD, calculated half-life in human liver microsomes (Table 3); for Change over non-deuterated compound (Table 3): change of half-life in human liver microsomes vs dextroethorphan. As to the method:
Human liver microsomes (20 mg/mL) were obtained from Xenotech, LLC (Lenexa, Kans.). β-nicotinamide adenine dinucleotide phosphate, reduced form (NADPH), magnesium chloride (MgCl2), and dimethyl sulfoxide (DMSO) were purchased from Sigma-Aldrich.
7.5 mM stock solutions of test compounds were prepared in DMSO. The 7.5 mM stock solutions were diluted to 50 μM in acetonitrile (ACN). The 20 mg/mL human liver microsomes were diluted to 1.25 mg/mL (1 mg/mL final) in 0.1 M potassium phosphate buffer, pH 7.4, containing 3 mM MgCl2. The diluted microsomes (375 μL) were added to wells of a 96-well polypropylene plate in triplicate. 10 μL of the 50 μM test compound was added to the microsomes and the mixture was pre-warmed for 10 minutes. Reactions were initiated by addition of 125 μL of pre-warmed NADPH solution. The final reaction volume was 0.5 mL and contained 1.0 mg/mL human liver microsomes, 1 μM test compound, and 2 mM NADPH in 0.1 M potassium phosphate buffer, pH 7.4, and 3 mM MgCl2. The reaction mixtures were incubated at 37° C., and 50 μL aliquots were removed at 0, 5, 10, 20, and 30 minutes and added to shallow 96-well plates which contained 50 μL of ice-cold ACN with internal standard to stop the reactions. The plates were stored at 4° C. for 20 minutes after which 100 μL of water was added to the wells of the plate before centrifugation to pellet precipitated proteins. Supernatants were transferred to another 96-well plate and analyzed for amounts of parent remaining by LC-MS/MS using an Applied Bio-systems API 4000 mass spectrometer. 7-ethoxy coumarin was used as a positive control.
The in vitro t1/2s for test compounds were calculated from the slopes of the linear regression of % parent remaining (ln) vs incubation time relationship:
in vitro t1/2=0.693/k, where k=−[slope of linear regression of % parent remaining(ln) vs incubation time]
Data analysis was performed using Microsoft Excel Software.

In data set [2] the target is T1, CYP2D6 (Homo sapiens, UniProt P10635).
T1 construct: purchased GenTest (Woburn, Mass., USA)
As to the kind of experiment: Metabolic stability in CYP2D6 SUPERSOMES
Type of data set: in vitro ADME. Particulars: recombinant CYP2D6 SUPERSOMES, 50 pmol/mL CYP2D6 SUPERSOMES, 1 μM test compound, 2 mM NADPH, pH 7.4, 37° C., 0-30 min, read-out: t1/2 ± SD, calculated half-life in SUPERSOMES
As to the method:
Human CYP2D6 SUPERSOMES™ were purchased from GenTest (Woburn, Mass., USA). 7.5 mM stock solutions of test compounds (Compounds 100, 102, and the ethyl ether analog of dextromethorphan (“dextroethorphan”) were prepared in DMSO. The 7.5 mM stock solutions were diluted to 50 μM in acetonitrile (ACN). The 1000 pmol/mL CYP2D6 supersomes were diluted to 62.5 pmol/mL in 0.1 M potassium phosphate buffer, pH 7.4, containing 3 mM MgCl2. The diluted SUPERSOMES™ were added to wells of a 96-well deep-well polypropylene plate in triplicate. 10 μL of the 50 μM test compound was added to the supersomes and the mixture was pre-warmed for 10 minutes. Reactions were initiated by addition of pre-warmed NADPH solution. The final reaction volume was 0.5 mL and contained 50 pmol/mL CYP2D6 SUPERSOMES™, 1 μM test compound, and 2 mM NADPH in 0.1 M potassium phosphate buffer, pH 7.4, and 3 mM MgCl2. The reaction mixtures were incubated at 37° C. and 50 μL aliquots were removed at 0, 5, 10, 20, and 30 minutes and added to shallow-well 96-well plates which contained 50 μL of ice-cold ACN with internal standard to stop the reactions. The plates were stored at 4° C. for 20 minutes after which 100 μL of water was added to the wells of the plate before centrifugation to pellet precipitated proteins. Supernatants were transferred to another 96-well plate and analyzed for amounts of parent remaining by LC-MS/MS using an Applied Bio-systems API 4000 mass spectrometer.
The in vitro half-life (t1/2) for each of the test compounds was calculated from the slopes of the linear regression of % parent remaining (ln) vs incubation time relationship: in vitro t1/2=0.693/k, where k=−[slope of linear regression of % parent remaining (ln) vs incubation time]. Data analysis was performed using Microsoft Excel Software.

The mark [3] stands for this setting: 1.0 mg/mL human liver microsomes, 1 μM test compound, 2 mM NADPH, pH 7.4, 37° C.

The structures appear in SMILES notation. Where a name gives a salt, the structure may show the parent alone.

T1 sequence (P10635 whole entry): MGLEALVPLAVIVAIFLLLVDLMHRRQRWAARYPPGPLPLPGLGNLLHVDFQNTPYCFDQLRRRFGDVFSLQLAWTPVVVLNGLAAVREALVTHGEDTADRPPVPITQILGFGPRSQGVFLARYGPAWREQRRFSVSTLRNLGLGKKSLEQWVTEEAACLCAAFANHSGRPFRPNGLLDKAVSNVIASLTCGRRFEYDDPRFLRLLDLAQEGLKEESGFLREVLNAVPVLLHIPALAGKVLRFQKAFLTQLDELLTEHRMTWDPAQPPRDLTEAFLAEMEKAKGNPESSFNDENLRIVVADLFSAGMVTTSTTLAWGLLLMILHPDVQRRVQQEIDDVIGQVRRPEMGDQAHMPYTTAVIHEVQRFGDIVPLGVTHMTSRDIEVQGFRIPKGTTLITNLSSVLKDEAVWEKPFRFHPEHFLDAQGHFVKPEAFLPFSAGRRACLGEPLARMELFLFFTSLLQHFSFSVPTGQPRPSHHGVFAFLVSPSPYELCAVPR

For `[2H]C([2H])([2H])N1CC[C@@]23CCCC[C@@H]2[C@@H]1Cc1ccc(OC([2H])([2H])C([2H])([2H])[2H])cc13` [Compound 100, (+)-3-(Ethoxy-d5)-17-(methyl-d3)-(9α,13α,14α)-morphinan hydrochloride], the half-life at 1 μM is 59.2 ± 1.7 min in data set [1] (setting [3]) and 51.3 ± 3.7 min in data set [2]. Moreover, in data set [1], the “Change over non-deuterated compound (Table 3)” value came to 109%.

Take `[2H]C([2H])([2H])C([2H])([2H])Oc1ccc2c(c1)[C@]13CCCC[C@@H]1[C@H](C2)N(C)CC3` [Compound 104, (+)-3-(Ethoxy-d5)-17-methyl-(9α,13α,14α)-morphinan hydrochloride]: the results for the half-life at 1 μM in data set [1] (setting [3]) and in data set [2] were 59.1 ± 2.2 min and 49.1 ± 4.1 min, respectively. For the same compound, the “Change over non-deuterated compound (Table 3)” value in data set [1] was found to be 109%.

`CCOc1ccc2c(c1)[C@@]13CCCC[C@H]1[C@@H](C2)N(C)CC3` [Dextroethorphan, (+)-3-ethoxy-17-methylmorphinan, reference compound]: the half-life at 1 μM was 28.3 ± 0.6 min in data set [1] (setting [3]) and 10.3 ± 2.1 min in data set [2]. In addition, the “t1/2 ± SD, calculated half-life in human liver microsomes (Table 4)” value in data set [1] (1.0 mg/mL human liver microsomes, 1 μM test compound, 2 mM NADPH, pH 7.4, 37° C., Table 4 experiment) is 37.1 ± 5.6 min.

For `COc1ccc2c(c1)[C@]13CCCC[C@@H]1[C@H](C2)N(C)CC3` [Dextromethorphan, (+)-3-methoxy-17-methyl-(9α,13α,14α)-morphinan, reference compound], the half-life at 1 μM in data set [2] is 1.7 ± 0.3 min.

The record behind these values is US20180243289A1, “[…] COMPOUNDS FOR TREATING AGITATION” (Concert Pharmaceuticals, Inc., priority 2015, published 2018).
